Test results reported in publication PMC9204419, “A Toolbox for the Generation of Chemical Probes for Baculovirus IAP Repeat Containing Proteins” (Frontiers in Cell and Developmental Biology, 2022).
“And” between values parts separate entries of the source, which are not always exact repeats. Equal entries are not always repeated.

Tests used:
BIRC3 BIR3 = BIRC3 BIR3 (Homo sapiens, UniProt Q13489); test: NanoBRET cellular target engagement, single domain BIRC3 BIR3; conditions: Tracer KD,app ± SEM, BIRC3 BIR3, single domain, n = 4
Chain of BIRC3 BIR3 (Q13489 236-360): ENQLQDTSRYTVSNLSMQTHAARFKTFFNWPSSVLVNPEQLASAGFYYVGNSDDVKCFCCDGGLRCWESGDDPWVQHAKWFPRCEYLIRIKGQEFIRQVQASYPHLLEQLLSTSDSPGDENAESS
Description: (§1) In brief: Constructs contained the cDNA of full-length or single domains cloned in frame with an N-terminal NanoLuc-fusion as specified in Supplementary Table S2. Plasmids were transfected into HEK293T cells using FuGENE HD (Promega, E2312) and proteins were allowed to express for 20 h. […] The corresponding transfected cells were added and reseeded at a density of 2.5^5 cells/mL after trypsinization and resuspending in Opti-MEM without phenol red (Life Technologies). […] Competitive displacement data were then graphed using GraphPad Prism 9.3 software using a normalized 3-parameter curve fit with the following equation: Y = 100/(1 + 10^(X-LogIC50)).

BIRC3 BIR2 = BIRC3 BIR2 (Homo sapiens, UniProt Q13489); test: NanoBRET cellular target engagement, single domain BIRC3 BIR2; conditions: Tracer KD,app ± SEM, BIRC3 BIR2, single domain, n = 4
Chain of BIRC3 BIR2 (Q13489 147-253): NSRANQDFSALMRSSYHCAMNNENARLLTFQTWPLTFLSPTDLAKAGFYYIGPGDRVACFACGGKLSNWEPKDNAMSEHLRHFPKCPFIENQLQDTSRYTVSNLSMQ

BIRC5 = biological target: T1, BIRC5 (Homo sapiens, UniProt O15392); test: NanoBRET tracer titration, BIRC5; format: cell-based; conditions: full-length taken as single BIR domain construct, n = 4; read-out: Tracer KD,app ± SEM, BIRC5
T1 construct: M1 D142; expressed in transfected cells; host or cells: HEK293T
T1 sequence (O15392 whole entry, the tested form may be a part): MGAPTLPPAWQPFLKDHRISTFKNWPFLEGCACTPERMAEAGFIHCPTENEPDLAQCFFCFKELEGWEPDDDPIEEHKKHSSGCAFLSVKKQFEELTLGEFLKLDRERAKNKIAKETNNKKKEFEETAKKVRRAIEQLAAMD

BIRC1 BIR1 = biological target: T2, BIRC1 BIR1 (Homo sapiens, UniProt Q13075); test: NanoBRET tracer titration, BIRC1 BIR1 (third BIR domain of BIRC1); format: cell-based; conditions: third BIR domain of BIRC1 (N256-Q391), n = 4; read-out: Tracer KD,app ± SEM, BIRC1 BIR1
T2 construct: N256 Q391; expressed in transfected cells; host or cells: HEK293T
T2 sequence (Q13075 256-391): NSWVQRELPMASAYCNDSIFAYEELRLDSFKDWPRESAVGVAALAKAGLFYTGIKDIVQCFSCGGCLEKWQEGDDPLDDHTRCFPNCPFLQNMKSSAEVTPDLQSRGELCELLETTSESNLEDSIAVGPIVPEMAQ

BIRC2 = BIRC2 (Homo sapiens, UniProt Q13490); test: NanoBRET cellular target engagement, full-length BIRC2; conditions: Tracer K D, full-length BIRC2, full-length
Chain of BIRC2 (Q13490 whole entry, the tested form may be a part): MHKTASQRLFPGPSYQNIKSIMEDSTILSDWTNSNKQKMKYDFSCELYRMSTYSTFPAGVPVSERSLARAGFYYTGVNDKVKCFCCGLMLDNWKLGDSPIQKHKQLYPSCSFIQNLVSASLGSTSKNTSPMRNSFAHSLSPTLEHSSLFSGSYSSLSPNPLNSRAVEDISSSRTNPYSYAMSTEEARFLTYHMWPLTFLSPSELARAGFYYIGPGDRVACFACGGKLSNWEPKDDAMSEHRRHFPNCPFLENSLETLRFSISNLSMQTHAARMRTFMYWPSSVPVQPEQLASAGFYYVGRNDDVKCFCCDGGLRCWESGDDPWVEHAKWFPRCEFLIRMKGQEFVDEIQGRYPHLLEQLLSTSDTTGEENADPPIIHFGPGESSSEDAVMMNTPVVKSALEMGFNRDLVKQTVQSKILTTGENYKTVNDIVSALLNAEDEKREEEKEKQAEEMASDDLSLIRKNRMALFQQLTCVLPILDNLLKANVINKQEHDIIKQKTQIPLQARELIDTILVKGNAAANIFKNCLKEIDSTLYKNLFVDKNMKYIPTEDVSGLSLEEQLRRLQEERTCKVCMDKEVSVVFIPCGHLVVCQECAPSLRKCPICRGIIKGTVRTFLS
Description: as §1

BIRC4 BIR1 = biological target: T3, BIRC4 BIR1 (Homo sapiens, UniProt P98170); test: NanoBRET tracer titration, BIRC4 BIR1; format: cell-based; conditions: single domain, n = 4; read-out: Tracer KD,app ± SEM, BIRC4 BIR1
T3 construct: N4 Q114; expressed in transfected cells; host or cells: HEK293T
T3 sequence (P98170 4-114): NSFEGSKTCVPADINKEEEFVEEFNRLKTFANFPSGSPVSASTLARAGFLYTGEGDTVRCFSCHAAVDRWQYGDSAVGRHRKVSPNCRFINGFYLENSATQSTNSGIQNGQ

BIRC7 = biological target: T4, BIRC7 (Homo sapiens, UniProt Q96CA5); test: NanoBRET cellular target engagement, full-length BIRC7
T4 sequence (Q96CA5 1-298): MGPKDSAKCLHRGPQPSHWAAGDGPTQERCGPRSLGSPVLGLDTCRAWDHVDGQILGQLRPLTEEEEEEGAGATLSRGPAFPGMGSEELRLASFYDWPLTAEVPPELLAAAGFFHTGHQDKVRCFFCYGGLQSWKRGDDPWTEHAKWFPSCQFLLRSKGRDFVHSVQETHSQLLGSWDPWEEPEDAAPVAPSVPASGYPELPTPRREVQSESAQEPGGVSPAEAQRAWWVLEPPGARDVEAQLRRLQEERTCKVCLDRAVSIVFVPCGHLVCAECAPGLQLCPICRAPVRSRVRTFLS

BIRC3 = BIRC3 (Homo sapiens, UniProt Q13489); test: NanoBRET cellular target engagement, full-length BIRC3
Chain of BIRC3 (Q13489 whole entry): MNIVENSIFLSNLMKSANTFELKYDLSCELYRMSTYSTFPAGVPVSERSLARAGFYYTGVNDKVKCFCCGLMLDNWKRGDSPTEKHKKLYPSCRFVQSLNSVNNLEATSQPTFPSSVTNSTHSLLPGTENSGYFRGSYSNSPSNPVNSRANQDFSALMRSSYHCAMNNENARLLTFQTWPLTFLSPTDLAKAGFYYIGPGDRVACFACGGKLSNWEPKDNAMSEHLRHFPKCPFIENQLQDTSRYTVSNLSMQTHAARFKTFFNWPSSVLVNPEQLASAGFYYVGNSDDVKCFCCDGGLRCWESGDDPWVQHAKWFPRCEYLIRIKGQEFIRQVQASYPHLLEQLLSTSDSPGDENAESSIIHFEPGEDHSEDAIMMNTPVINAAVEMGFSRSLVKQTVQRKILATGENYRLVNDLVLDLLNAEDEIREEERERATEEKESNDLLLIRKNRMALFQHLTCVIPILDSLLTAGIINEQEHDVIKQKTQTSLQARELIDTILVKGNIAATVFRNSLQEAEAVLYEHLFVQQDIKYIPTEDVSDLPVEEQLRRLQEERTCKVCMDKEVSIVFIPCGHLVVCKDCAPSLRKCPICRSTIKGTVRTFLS
Description: as §1

BIRC4 = BIRC4 (Homo sapiens, UniProt P98170); test: NanoBRET cellular target engagement, full-length BIRC4
Chain of BIRC4 (P98170 whole entry, the tested form may be a part): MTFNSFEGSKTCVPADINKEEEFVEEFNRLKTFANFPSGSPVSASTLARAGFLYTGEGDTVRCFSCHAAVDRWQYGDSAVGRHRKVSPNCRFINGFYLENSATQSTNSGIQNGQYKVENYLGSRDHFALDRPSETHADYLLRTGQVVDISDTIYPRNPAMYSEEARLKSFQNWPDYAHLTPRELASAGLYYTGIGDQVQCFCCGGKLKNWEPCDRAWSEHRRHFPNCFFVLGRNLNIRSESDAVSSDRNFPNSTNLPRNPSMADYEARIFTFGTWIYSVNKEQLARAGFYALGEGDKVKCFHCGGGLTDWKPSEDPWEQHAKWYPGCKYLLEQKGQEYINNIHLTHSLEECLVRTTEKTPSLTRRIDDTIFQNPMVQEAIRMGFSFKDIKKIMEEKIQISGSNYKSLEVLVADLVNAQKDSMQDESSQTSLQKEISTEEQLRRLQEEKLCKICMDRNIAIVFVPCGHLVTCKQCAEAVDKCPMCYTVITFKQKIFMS
Description: as §1

BIRC2 BIR1 = biological target: T5, BIRC2 BIR1 (Homo sapiens, UniProt Q13490); test: NanoBRET tracer titration, BIRC2 BIR1; format: cell-based; conditions: single domain, n = 4; read-out: Tracer KD,app ± SEM, BIRC2 BIR1
T5 construct: D24 S134; expressed in transfected cells; host or cells: HEK293T
T5 sequence (Q13490 24-134): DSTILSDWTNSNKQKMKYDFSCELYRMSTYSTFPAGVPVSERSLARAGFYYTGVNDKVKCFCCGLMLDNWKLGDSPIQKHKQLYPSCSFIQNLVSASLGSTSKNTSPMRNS

BIRC7 BIR = biological target: T6, BIRC7 BIR (Homo sapiens, UniProt Q96CA5); test: NanoBRET cellular target engagement, single domain BIRC7 BIR; conditions: Tracer KD,app ± SEM, BIRC7 BIR, single domain, n = 4
T6 sequence (Q96CA5 70-176): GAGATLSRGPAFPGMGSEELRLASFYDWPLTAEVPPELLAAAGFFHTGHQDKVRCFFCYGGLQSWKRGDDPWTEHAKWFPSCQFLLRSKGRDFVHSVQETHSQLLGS

BIRC2 BIR3 = BIRC2 BIR3 (Homo sapiens, UniProt Q13490); test: NanoBRET cellular target engagement, single domain BIRC2 BIR3
Chain of BIRC2 BIR3 (Q13490 251-372): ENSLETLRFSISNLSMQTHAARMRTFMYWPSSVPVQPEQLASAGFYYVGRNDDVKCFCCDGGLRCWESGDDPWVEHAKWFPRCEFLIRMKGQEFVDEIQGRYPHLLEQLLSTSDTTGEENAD
Description: as §1

BIRC8 BIR = biological target: T7, BIRC8 BIR (Homo sapiens, UniProt Q96P09); test: NanoBRET cellular target engagement, single domain BIRC8 BIR
T7 sequence (Q96P09 1-90): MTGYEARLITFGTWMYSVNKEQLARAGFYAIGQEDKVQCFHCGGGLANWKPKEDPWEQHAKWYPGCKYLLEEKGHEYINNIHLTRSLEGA
Description: as §1

BIRC4 BIR3 = biological target: T8, BIRC4 BIR3 (Homo sapiens, UniProt P98170); test: NanoBRET tracer titration, BIRC4 BIR3; format: cell-based; conditions: single domain, n = 4; read-out: Tracer KD,app ± SEM, BIRC4 BIR3
T8 construct: S245 N373; expressed in transfected cells; host or cells: HEK293T
T8 sequence (P98170 245-373): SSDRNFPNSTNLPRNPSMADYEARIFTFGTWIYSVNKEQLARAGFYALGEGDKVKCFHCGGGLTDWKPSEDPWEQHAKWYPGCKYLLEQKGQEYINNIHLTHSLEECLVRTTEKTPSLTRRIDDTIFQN

BIRC4 BIR2 = biological target: T9, BIRC4 BIR2 (Homo sapiens, UniProt P98170); test: NanoBRET tracer titration, BIRC4 BIR2; format: cell-based; conditions: single domain, n = 4; read-out: Tracer KD,app ± SEM, BIRC4 BIR2
T9 construct: G144 S253; expressed in transfected cells; host or cells: HEK293T
T9 sequence (P98170 144-253): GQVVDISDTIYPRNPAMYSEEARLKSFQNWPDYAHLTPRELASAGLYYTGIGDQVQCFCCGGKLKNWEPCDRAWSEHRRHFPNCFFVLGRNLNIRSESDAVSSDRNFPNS

BIRC1 BIR[2] = biological target: T10, BIRC1 BIR[2] (Homo sapiens, UniProt Q13075); test: NanoBRET cellular target engagement, single domain BIRC1 BIR[2]; conditions: Tracer KD,app ± SEM, BIRC1 BIR[2], single domain (D139-G251), n = 4
T10 sequence (Q13075 139-251): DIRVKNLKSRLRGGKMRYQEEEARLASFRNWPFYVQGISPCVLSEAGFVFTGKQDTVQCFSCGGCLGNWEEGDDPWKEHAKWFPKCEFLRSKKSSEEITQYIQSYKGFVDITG
Description: as §1

BIRC8 = biological target: T11, BIRC8 (Homo sapiens, UniProt Q96P09); test: NanoBRET cellular target engagement, full-length BIRC8
T11 sequence (Q96P09 1-236): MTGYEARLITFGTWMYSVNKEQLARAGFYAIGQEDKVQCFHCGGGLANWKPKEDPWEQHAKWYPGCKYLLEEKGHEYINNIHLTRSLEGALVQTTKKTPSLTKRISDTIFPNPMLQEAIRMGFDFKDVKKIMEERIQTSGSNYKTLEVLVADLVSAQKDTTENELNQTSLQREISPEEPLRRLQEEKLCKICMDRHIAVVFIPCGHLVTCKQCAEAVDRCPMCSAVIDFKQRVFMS

BIRC3 BIR1 = biological target: T12, BIRC3 BIR1 (Homo sapiens, UniProt Q13489); test: NanoBRET tracer titration, BIRC3 BIR1; format: cell-based; conditions: single domain, n = 4; read-out: Tracer KD,app ± SEM, BIRC3 BIR1
T12 construct: N6 S116; expressed in transfected cells; host or cells: HEK293T
T12 sequence (Q13489 6-116): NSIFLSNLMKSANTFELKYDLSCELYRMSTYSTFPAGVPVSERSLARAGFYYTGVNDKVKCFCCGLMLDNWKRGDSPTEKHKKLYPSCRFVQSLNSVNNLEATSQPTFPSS

BIRC2 BIR2 = BIRC2 BIR2 (Homo sapiens, UniProt Q13490); test: NanoBRET cellular target engagement, single domain BIRC2 BIR2; conditions: Tracer KD,app ± SEM, BIRC2 BIR2, single domain, n = 4
Chain of BIRC2 BIR2 (Q13490 165-267): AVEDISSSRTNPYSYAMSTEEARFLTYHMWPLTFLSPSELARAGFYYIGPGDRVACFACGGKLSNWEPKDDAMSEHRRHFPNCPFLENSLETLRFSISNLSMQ
Description: as §1

Kd (BIRC3 BIR3): 380 nM and < 1000 nM
Kd (BIRC3 BIR2): 1670 nM and > 1000 nM
Kd (BIRC5): > 4000 nM
Kd (BIRC1 BIR1): < 4000 nM and > 4000 nM and > 1000 nM
Kd (BIRC2): < 250 nM and 20 nM
Kd (BIRC4 BIR1): 2750 nM and > 1000 nM
Kd (BIRC7; Tracer K D, full-length BIRC7, full-length): < 250 nM
Kd (BIRC7; Tracer KD,app ± SEM, BIRC7, full-length, n = 4): 250 ± 20 nM
Kd (BIRC3; Tracer K D, full-length BIRC3, full-length): < 250 nM
Kd (BIRC3; Tracer KD,app ± SEM, BIRC3, full-length, n = 4): 190 ± 30 nM
Kd (BIRC4; Tracer K D, full-length BIRC4, full-length): < 250 nM
Kd (BIRC4; Tracer KD,app ± SEM, BIRC4, full-length, n = 4): 40 nM
Kd (BIRC2 BIR1): 2420 nM and > 1000 nM
Kd (BIRC7 BIR): 540 nM and < 1000 nM
Kd (BIRC2 BIR3; Tracer K D, app, BIRC2-BIR3 domain, single domain): 50 ± 10 nM
Kd (BIRC2 BIR3; Tracer KD,app ± SEM, BIRC2 BIR3, single domain, n = 4): < 1000 nM
Kd (BIRC8 BIR): 2760 ± 340 nM
Kd (BIRC4 BIR3): > 4000 nM
Kd (BIRC4 BIR2): > 4000 nM
Kd (BIRC1 BIR[2]): 1790 nM and > 1000 nM
Kd (BIRC8): 1060 ± 350 nM
Kd (BIRC3 BIR1): 2310 nM and > 1000 nM
Kd (BIRC2 BIR2): 2600 nM and > 1000 nM
SMILES: CNC(C)C(=O)NC(C(=O)N1CCCC1c1nc(C(=O)c2cccc(OCCOCCOCCNC(=O)CCc3ccc4n3[B-](F)(F)[N+]3=C(c5ccc[nH]5)C=CC3=C4)c2)cs1)C1CCCCC1 (centres unmarked) [IAP Tracer]
